Like-named read-outs stand apart in the source and are kept apart here.
Columns and labels:
[1] = biological target: KLK7 (Homo sapiens, UniProt P49862); experiment: KLK7 enzyme inhibition assay, fluorogenic substrate Suc-Leu-Leu-Val-Tyr-AMC; type: biochemical; details: for selective activity against enzyme: KLK7: Table B, among KLK5, KLK7 and KLK14
Description: (§1) Kallikreins KLK5, KLK7 and KLK14 activities were determined by monitoring the hydrolysis of the appropriate fluorogenic substrate (λexc=355, λem=460 nm) for 15 min at 37° C. in the presence of the untreated kallikrein (control) or kallikrein that had been incubated with a test compound. Substrate and compounds were previously dissolved in DMSO, with the final solvent concentration kept constant at 2% (v/v) (KLK 5 and 14), and 4% (v/v) (KLK7). The composition of the activity buffers (pH 8.0) was 100 mM Tris-HCl, 150 mM NaCl, 0.01% (v/v) Tween 20 for the KLK5 assay, and 100 mM Tris-HCl, 1M NaCl, 0.01% (v/v) Tween 20 in the KLK 7 and 14 assays. The final concentrations were 0.6 nM (KLK5) and 100 μM (Boc-Val-Pro-Arg-AMC) (KLK5 assay), 8 nM (KLK7) and 40 μM (Suc-Leu-Leu-Val-Tyr-AMC, AMC: 7-amino-4-methyl-coumarin) (KLK7 assay), and 0.17 nM (KLK14) and 10 μM (Boc-Val-Pro-Arg-AMC) (KLK14 assay). Using the appropriate substrate, the coumarinic compounds (0.01-100 μM) were tested in duplicate for each inhibitor concentration to detect their inhibitory potential. The enzyme and the inhibitors were incubated for 15 min before the determination of the enzyme activity. Initial rates determined in control experiments (V0) were considered to be 100% of the peptidase activity; initial rates below 100% were considered to be inhibitions. The inhibitory activity of compounds was expressed as IC50 (inhibitor concentrations giving 50% inhibition). The values of IC50 were calculated by fitting the experimental data to the equation: % Inhibition=100×(1−Vi/V0)=100[I]0/(IC50+[I]0), or equation: % Inhibition=100[I]0^nH/(IC50^nH+[I]0^nH),nH is the Hill number.
(§2) The tests were realized at 37° C. after 15 min of incubation at pH 8.

[2] = system: normal human keratinocytes; experiment: Neutral red uptake (NRU) cytotoxicity test / cell viability; type: cell-based; set-up: cytotoxicity, neutral red uptake test (FIG. 5): dose or concentration left out as unconfirmed; details: 48 h; for cytotoxicity, neutral red uptake test: 1 and 10 μM; for cytotoxicity, neutral red uptake test / cytotoxicity, neutral red uptake test (FIG. 5): human normal keratinocytes; for Toxicity, neutral red uptake test: normal human keratinocytes
From the text: The NRU cytotoxicity assay procedure is a cell survival/viability chemosensitivity assay based on the ability of viable cells to incorporate and bind neutral red (NR), a supravital dye. NR is a weak cationic dye that readily penetrates cell membranes by non-ionic diffusion and accumulates intracellularly in lysosomes. Alterations of the cell surface or the sensitive lysosomal membrane lead to lysosomal fragility and other changes that gradually become irreversible. Such changes caused by the action of xenobiotics result in a decreased uptake and binding of NR. It is thus possible to distinguish between viable, damaged, or dead cells, which is the basis of this assay. After treatment with the small-molecules inhibitors, NR uptake in cells will be measured by spectrophotometry at 540±10 nm.
Keratinocytes from healthy persons or patients with Netherton syndrome are seeded at the density of 4000 cells in 125 μL of medium per well in 96-well plates.
After seeding, cells are incubated for 48 hours in the following experimental conditions: 37° C.±1° C., 90%±5.0% humidity, and 5%±1% CO2/air. This incubation period allows for cell recovery and adherence and progression to exponential growth phase.
Prepare inhibitors solutions 2-fold more concentrated than desired. Add 125 μL of these solutions to the wells without changing or removing the medium (125 μL).
48 h hours after the beginning of the treatment, carefully remove the medium (containing the tested inhibitor) and rinse the cells very carefully with 250 μL pre-warmed PBS.
Add 250 μL NR medium and incubate (37° C.±1° C., 90%±5% humidity, and 5.0%±1% CO2/air) for 3±0.1 h. NR medium is the culture medium containing 33 μg/mL of NR. After incubation, remove the NR medium, and carefully rinse cells with 250 μL pre-warmed PBS.
Measure the absorption (within 60 minutes after adding NR Desorb solution) of the resulting colored solution at 540 nm±10 nm in a microtiter plate reader (spectrophotometer), using the blank as a reference.
A calculation of cell viability expressed as NRU is made for each concentration of the tested inhibitor by using the mean NRU of the three replicate values per each concentration. This value is compared with the mean NRU of all vehicle values. Relative cell viability is then expressed as percent of untreated vehicle control (DMSO).
Normal human keratinocytes were seeded in a 96-well tissue culture plate. At 20% of confluence, molecules were added in the culture medium and incubated for 48 h. Neutral red medium was added to every well for an incubation period of 3 h, then the dye was extracted with acidified ethanol solution. Data (FIGS. 2 and 3) represent the mean cell viability after treatment +/−SD compared to mean viability of cells treated with the vehicle only (DMSO). Data represent the mean of 5 individual experiments.

[3] = biological target: T1, KLK14 (Homo sapiens, UniProt Q9P0G3); experiment: KLK14 enzyme inhibition assay, fluorogenic substrate Boc-Val-Pro-Arg-AMC; type: biochemical; details: for IC50 / inhibition at 100 µM / inhibition at 50 µM: 37° C., 15 min of incubation, pH 8
T1 sequence (Q9P0G3 25-251): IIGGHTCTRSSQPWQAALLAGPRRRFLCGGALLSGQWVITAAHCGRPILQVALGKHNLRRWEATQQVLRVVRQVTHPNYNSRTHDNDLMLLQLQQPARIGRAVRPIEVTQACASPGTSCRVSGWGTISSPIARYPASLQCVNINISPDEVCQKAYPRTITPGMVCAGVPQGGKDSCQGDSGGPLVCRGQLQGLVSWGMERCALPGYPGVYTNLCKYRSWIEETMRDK
Description: as §1, §2

[4] = biological target: T2, KLK5 (Homo sapiens, UniProt Q9Y337); experiment: KLK5 enzyme inhibition assay, fluorogenic substrate Boc-Val-Pro-Arg-AMC; type: biochemical; details: 37° C., 15 min of incubation, pH 8
T2 sequence (Q9Y337 23-293): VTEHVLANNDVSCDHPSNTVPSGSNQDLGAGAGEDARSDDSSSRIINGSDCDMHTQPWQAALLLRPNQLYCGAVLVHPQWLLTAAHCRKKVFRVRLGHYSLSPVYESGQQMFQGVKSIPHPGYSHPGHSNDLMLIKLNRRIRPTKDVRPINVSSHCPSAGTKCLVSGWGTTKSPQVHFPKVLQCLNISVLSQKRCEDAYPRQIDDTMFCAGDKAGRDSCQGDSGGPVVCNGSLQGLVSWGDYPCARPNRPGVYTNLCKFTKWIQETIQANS
Description: as §1, §2

[5] = Table A, 37° C., 15 min of incubation, pH 8, read-out: IC50 (μM) KLK7
[6] = Table A, read-out: IC50 (μM) KLK14
[7] = Table A, read-out: IC50 (μM) KLK5
[8] = Table A2, 37° C., 15 min of incubation, pH 8, read-out: IC50 (nM) KLK7

Chain of KLK7 (P49862 30-253): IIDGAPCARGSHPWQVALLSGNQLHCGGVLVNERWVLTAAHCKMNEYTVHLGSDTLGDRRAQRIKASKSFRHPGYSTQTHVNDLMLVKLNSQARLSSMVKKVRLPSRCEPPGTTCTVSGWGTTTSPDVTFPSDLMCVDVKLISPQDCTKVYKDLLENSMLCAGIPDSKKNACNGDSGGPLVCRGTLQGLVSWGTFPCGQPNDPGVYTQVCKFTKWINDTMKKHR

SMILES	IC50 [1, 5]	cytotoxicity, neutral red uptake test [2]	selective activity against enzyme: KLK7 [1]	inhibition at 100 µM [3]	inhibition at 50 µM [4]	also measured
O=C(Oc1cc(F)ccc1F)c1cc2cc(CCl)ccc2oc1=O [CFL5]	0.5 ± 0.04 µM	No noticeable cytotoxicity				IC50 [3, 6]: 39 ± 4 µM; inhibition at 100 µM [4]: 35%
COC(=O)c1cccc(OC(=O)c2cc3cc(CCl)ccc3oc2=O)c1 [IK2]	0.68 ± 0.01 µM	No noticeable cytotoxicity	KLK7	67%		
NC(=O)c1ccccc1OC(=O)c1cc2cc(CCl)ccc2oc1=O [IK3]				77%		Toxicity, neutral red uptake test ([2]; 1 μM): 16.09±8.32%; Toxicity, neutral red uptake test ([2]; 10 μM): 47.1±4.43%; selective activity against enzyme: KLK14 ([3]; Table B, among KLK5, KLK7 and KLK14): KLK14
NC(=O)c1cccc(OC(=O)c2cc3cc(CCl)ccc3oc2=O)c1 [IK4]	7.8 ± 0.6 µM	No noticeable cytotoxicity				IC50 [3, 6]: 30 ± 8 µM; IC50 [4, 7]: 21.6 ± 5 µM
O=C(Oc1ccccc1)c1cc2cc(CBr)ccc2oc1=O [JFR5, Phenyl 6-bromomethyl-2-oxo-2H-1-benzopyran-3-carboxylate]					34%	IC50 [1, 8]: 0.249 ± 0.0035 µM; cytotoxicity, neutral red uptake test (FIG. 5) [2]: No noticeable cytotoxicity; inhibition at 50 µM [3]: 53%
O=C(Oc1cccc(Br)c1)c1cc2cc(CBr)ccc2oc1=O [JFR8, 3-Bromophenyl 6-bromomethyl-2-oxo-2H-1-benzopyran-3-carboxylate]			KLK7			IC50 [1, 8]: 0.057 ± 0.002 µM; cytotoxicity, neutral red uptake test (FIG. 5) [2]: No noticeable cytotoxicity; IC50 ([3]; Table A2, read-out: IC50 (nM) KLK14): 3 ± 0.1 µM; IC50 ([4]; Table A2, read-out: IC50 (nM) KLK5): 1.47 ± 0.06 µM
O=C(Oc1cccc(F)c1)c1cc2cc(CBr)ccc2oc1=O [JFR11, 3-Fluorophenyl 6-bromomethyl-2-oxo-2H-1-benzopyran-3-carboxylate]					42%	IC50 [1, 8]: 0.198 ± 0.008 µM; cytotoxicity, neutral red uptake test (FIG. 5) [2]: No noticeable cytotoxicity; inhibition at 50 µM [3]: 48%
O=C(Oc1ccc(Cl)cc1)c1cc2cc(CCl)ccc2oc1=O [LP7]	0.463 ± 0.007 µM	No noticeable cytotoxicity				
O=C(Oc1cccc(I)c1)c1cc2cc(CCl)ccc2oc1=O [LP14]	0.077 ± 0.003 µM	No noticeable cytotoxicity	KLK7	70%		inhibition at 100 µM [4]: 48%
O=C(Sc1ccccc1)c1cc2cc(CCl)ccc2oc1=O [LP41]	0.39 ± 0.03 µM	No noticeable cytotoxicity		67%		inhibition at 100 µM [4]: 32%
O=C(Oc1cccc(Br)c1)c1cc2cc(CCl)ccc2oc1=O [LP53]	0.065 ± 0.003 µM	No noticeable cytotoxicity	KLK7	41%	34%	
COc1cccc(OC(=O)c2cc3cc(CCl)ccc3oc2=O)c1 [LP55]	8.4 ± 0.2 µM	No noticeable cytotoxicity	KLK7			
COc1cc(Cl)cc(OC(=O)c2cc3cc(CCl)ccc3oc2=O)c1 [LP61]	0.13 ± 0.005 µM	No noticeable cytotoxicity				
O=C(Oc1c(Cl)cccc1Cl)c1cc2cc(CCl)ccc2oc1=O [LP72]	0.495 ± 0.037 µM		KLK7	50%		IC50 [4, 7]: 59 ± 9 µM
O=C(Oc1cc(Cl)ccc1Cl)c1cc2cc(CCl)ccc2oc1=O [LP74]	0.195 ± 0.024 µM		KLK7			IC50 [3, 6]: 54 ± 6 µM; IC50 [4, 7]: 1.3 ± 0.2 µM
COC(=O)c1cc2cc(CCl)ccc2oc1=O [MFS2]	26.8 ± 1.5 µM					IC50 [3, 6]: 73 ± 14 µM; IC50 [4, 7]: 54 ± 2 µM
CCOC(=O)c1cc2cc(CCl)ccc2oc1=O [MFS3]	20.9 ± 0.9 µM			48%	39%	
O=C(Oc1ccccc1)c1cc2cc(CCl)ccc2oc1=O [MFS7]	0.235 ± 0.009 µM	No noticeable cytotoxicity	KLK7	45%	26%	
O=C(Oc1ccccc1Cl)c1cc2cc(CCl)ccc2oc1=O [MFS36]	0.209 ± 0.006 µM		KLK7	100%		inhibition at 100 µM [4]: 50%
O=C(Oc1ccccc1)c1cc2cc(O)c(O)cc2oc1=O [MH22]					32%	inhibition at 50 µM ([1]; 50 μM, 37° C., 15 min of incubation, pH 8): 100%; inhibition at 50 µM [3]: 85%
O=C(Oc1ccccc1)c1cc2cc(CO)ccc2oc1=O [MH30]	33.2 ± 1.4 µM				25%	inhibition at 50 µM [3]: 32%

— patent US9814696B2, “Use of coumarin derivatives for the preparation of drugs for treating skin diseases” (UNIVERSITE PIERRE ET MARIE CURIE (PARIS 6), priority 2011, dated 2017)
